According to US11884932B2, “In vitro production of medial ganglionic eminence precursor cells” (The Regents of the University of California, priority 2013, dated 2024):

Columns and labels:
SCID mouse cortex = assay: Tumor incidence after injection of hESC-derived NKX2.1-GFP+ cells into newborn SCID mouse cortex; type: in vivo
Description: Excess medium was removed from sorted cell pellets to create concentrated cell suspensions of 1000 cells/nl. Cells were loaded into a beveled glass micropipette (Wiretrol 5 ul, Drummond Scientific Company) mounted on a stereotactic hydraulic injector. P2 CB.17-SCID pups (Charles River) were anesthetized through hypothermia and positioned in a clay head mold on the injector platform. 10-100,000 cells per injection site were delivered transcranially into the right cerebral cortex using the following coordinates: 0.9 mm from the midline (sagittal sinus), and 2.6 mm from lambda. The depth of injection was 0.45 mm from the skin surface. All transplantation experiments adhered to approved UCSF Institutional Animal Care and Use Committee protocols.
Initially, day 35 monolayer cultures were sorted for NKX2.1-GFP+, without PSANCAM selection, and injected into newborn SCID mouse cortex. However, within 4 months, injected mouse brains (12/12 mice) contained tumor-like overgrowths at the injection site and/or at the pial surface near the injection tract (data not shown). These were not pluripotent cell-derived teratomas; OCT4+ cells or polarized neuroepithelial rosettes were not found. […] But, focal growths (˜1 focus/2500 plated cells, n=3) were occasionally detected in extended co-cultures, consistent with tumor formation in vivo. […]

[1] = tested on: HES3 NKX2.1-GFP hESC line with i12b-RFP; assay: Flow cytometry of NKX2.1-GFP and i12b-RFP double positive cells; type: cell-based, human; conditions: B27+5F cultures treated with DAPT
Source text: The intergenic DLX½i12b (422) enhancer driving the mCherry RFP reporter gene (i12b-RFP) was delivered into the HES3 NKX2.1-GFP hESC line using lentivirus, and two stable cell lines were generated (#5 and #10) as confirmed by genomic DNA PCR for mCherry. (FIG. 22, F).
The modified lines were differentiated using the B27±5F method, and i12b-RFP expression was detected after three weeks of differentiation, along with NKX2.1. (FIG. 22, G). i12b-RFP+ cells in EBs co-expressed GABAergic neuron marker DLX2 and neuronal marker TUJ1. (FIGS. 22, H and I).
Flow cytometry analysis confirmed that many cells derived with the B27+5F method co-expressed both NKX2.1-GFP and i12b-RFP (FIG. 22, J).

C[C@H](NC(=O)Cc1cc(F)cc(F)c1)C(=O)N[C@H](C(=O)OC(C)(C)C)c1ccccc1 [DAPT]
tumor incidence (SCID mouse cortex; brief addition of DAPT prior to injection, low-density monolayer culture, 3/9 mice): 33%
in vivo tumor incidence (SCID mouse cortex; day 35 cultures pretreated with DAPT and FACS-sorted for both NKX2.1-GFP+ and PSA-NCAM+ cells): 0/6
double positive (NKX2.1-GFP and i12b-RFP) population of MGE derived interneurons [1]: marked increase
